Assay results as given in US12162872B2, “Cycloalkylurea derivative” (Sumitomo Pharma Co., Ltd., priority 2019, dated 2024).

What follows are molecules tested against T1, Human orexin receptor type 2 (Homo sapiens, UniProt O43614) (assay: Test 1: Evaluation of agonist activity for orexin receptor type 2 (aequorin luminescence, intracellular calcium mobilization in CHO cells)). Conditions: relative percentage of luminescence for the luminescence (100%) of Orexin A (100 pM); CHO cells transiently expressing human orexin receptor type 2 and apoaequorin; Orexin A Lot. 641114.
T1 construct: expressed in transfected cells; host or cells: CHO cells (transient expression)
T1 sequence (O43614 1-444): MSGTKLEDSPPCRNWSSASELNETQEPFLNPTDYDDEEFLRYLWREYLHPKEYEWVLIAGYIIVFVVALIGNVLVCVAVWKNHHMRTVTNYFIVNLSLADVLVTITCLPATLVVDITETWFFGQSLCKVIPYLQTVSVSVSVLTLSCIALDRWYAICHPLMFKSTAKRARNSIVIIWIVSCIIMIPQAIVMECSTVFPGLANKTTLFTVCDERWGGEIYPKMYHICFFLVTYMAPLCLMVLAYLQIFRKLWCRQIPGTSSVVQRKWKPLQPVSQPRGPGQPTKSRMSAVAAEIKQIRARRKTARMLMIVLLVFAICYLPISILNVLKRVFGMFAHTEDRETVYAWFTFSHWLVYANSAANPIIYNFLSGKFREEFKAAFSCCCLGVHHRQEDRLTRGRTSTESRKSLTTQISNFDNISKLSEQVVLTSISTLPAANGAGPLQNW
Assay type: cell-based
Experimental: Test 1: Evaluation of Agonist Activity for Orexin Receptor Type 2
Human orexin receptor type 2 and apoaequorin were transiently expressed in CHO cells, and the agonist activity was evaluated based on intracellular calcium mobilization with ligand stimulation. The CHO cells transiently-expressed human orexin receptor type 2 and apoaequorin were seeded on a 384-well plate by 2,000 cells/well, and then incubated for 16-22 hours. After the plate was returned to room temperature, Coelenterazine hcp (final concentration: 1 μM) was added to the plate, and the plate was allowed to stand at room temperature for 2 hours. And then, Orexin A (PEPTIDE INSTITUTE, INC., Lot. 641114) or each test compound was added to the plate, and the luminescence of the cells was measured with FDSS7000 (Hamamatsu Photonics K.K.), wherein Orexin A and each test compound were dissolved in DMSO (final concentration: 0.1%), and diluted with a buffer (Hanks, 20 mM HEPES, 0.1% BSA). The agonist activity of each test compound for orexin receptor type 2 was calculated as relative percentage of luminescence for the luminescence (100%) of Orexin A (100 pM).

agonist activity (%) | SMILES
149 | Cc1cnc(C2CCN(C(=O)N[C@@H]3[C@@H](N4CCN(C(C)C)CC4)CCCC3(F)F)CC2)c(F)c1 (racemic) [Example 51, rac-N-{(1R,6S)-2,2-difluoro-6-[4-(propan-2-yl)piperazin-1-yl]cyclohexyl}-4-(3-fluoro-5-methylpyridin-2-yl)piperidine-1-carboxamide]
113 | CC(C)N1CCN([C@H]2CCCC(F)(F)[C@@H]2NC(=O)N2CCC(c3ccc(F)cn3)CC2)CC1 (racemic) [Example 52, rac-N-{(1R,6S)-2,2-difluoro-6-[4-(propan-2-yl)piperazin-1-yl]cyclohexyl}-4-(5-fluoropyridin-2-yl)piperidine-1-carboxamide]
143 | COc1ccc(C2CCN(C(=O)N[C@@H]3[C@@H](N4CCN(C(C)C)CC4)CCCC3(F)F)CC2)nc1 (racemic) [Example 53, rac-N-{(1R,6S)-2,2-difluoro-6-[4-(propan-2-yl)piperazin-1-yl]cyclohexyl}-4-(5-methoxypyridin-2-yl)piperidine-1-carboxamide]
146 | Cc1cnc(C2CCN(C(=O)N[C@@H]3[C@@H](N4CCN(C(C)C)CC4)CCCC3(F)F)CC2)nc1 (racemic) [Example 54, rac-N-{(1R,6S)-2,2-difluoro-6-[4-(propan-2-yl)piperazin-1-yl]cyclohexyl}-4-(5-methylpyrimidin-2-yl)piperidine-1-carboxamide]
95 | CC(C)N1CCN([C@H]2CCCC(F)(F)[C@@H]2NC(=O)N2CCC(c3ccc(C(F)(F)F)cn3)CC2)CC1 (racemic) [Example 55, rac-N-{(1R,6S)-2,2-difluoro-6-[4-(propan-2-yl)piperazin-1-yl]cyclohexyl}-4-[5-(trifluoromethyl)pyridin-2-yl]piperidine-1-carboxamide]
150 | Cc1ccc(C2(C)CCN(C(=O)N[C@@H]3[C@@H](N4CCN(C(C)C)CC4)CCCC3(F)F)CC2)cc1 (racemic) [Example 58, rac-N-{(1R,6S)-2,2-difluoro-6-[4-(propan-2-yl)piperazin-1-yl]cyclohexyl}-4-methyl-4-(4-methylphenyl)piperidine-1-carboxamide]
164 | CC(C)N1CCN([C@H]2CCCC(F)(F)[C@@H]2NC(=O)N2CCC(C)(c3ccc(C(F)F)cc3)CC2)CC1 (racemic) [Example 59, rac-4-[4-(difluoromethyl)phenyl]-N-{(1R,6S)-2,2-difluoro-6-[4-(propan-2-yl)piperazin-1-yl]cyclohexyl}-4-methylpiperidine-1-carboxamide]
158 | Cc1ccc(C2CC=C(C(=O)N[C@@H]3[C@@H](N4CCN(C(C)C)CC4)CCCC3(F)F)CC2)cc1 (mixture of isomers) [Example 77, rac-N-{(1R,6S)-2,2-Difluoro-6-[4-(propan-2-yl)piperazin-1-yl]cyclohexyl}-4′-methyl-1,2,3,6-tetrahydro[1,1′-biphenyl]-4-carboxamide]
36 | Cc1ccc(C2CC=C(C(=O)O[C@@H]3[C@@H](N4CCN(C(C)C)CC4)CCCC3(F)F)CC2)cc1 (mixture of isomers) [Example 78, rac-(1R,6S)-2,2-Difluoro-6-[4-(propan-2-yl)piperazin-1-yl]cyclohexyl 4′-methyl-1,2,3,6-tetrahydro[1,1′-biphenyl]-4-carboxylate]
191 | CC(C)N1CCN([C@H]2CCCC(F)(F)[C@@H]2NC(=S)N2CCC(C)(c3noc(C4CC4)n3)CC2)CC1 (racemic) [Example 79, rac-4-(5-cyclopropyl-1,2,4-oxadiazol-3-yl)-N-{(1R,6S)-2,2-difluoro-6-[4-(propan-2-yl)piperazin-1-yl]cyclohexyl}-4-methylpiperidine-1-carbothioamide]
57 | Cc1ccc(C2CCN(C(=O)NC3C(CN4CCN(C(C)C)CC4)[C@@H]4CC[C@H]3C4)CC2)cc1 (mixture of isomers) [Example 81, rac-4-(4-Methylphenyl)-N-[(1S,4R)-3-{[4-(propan-2-yl)piperazin-1-yl]methyl}bicyclo[2.2.1]heptan-2-yl]piperidine-1-carboxamide]
178 | CC(C)N1CCN([C@H]2CCCC(F)(F)[C@@H]2OC(=O)N2CCC(C)(c3noc(C4CC4)n3)CC2)CC1 [Example 14, (1R,6S)-2,2-difluoro-6-[4-(propan-2-yl)piperazin-1-yl]cyclohexyl 4-(5-cyclopropyl-1,2,4-oxadiazol-3-yl)-4-methylpiperidine-1-carboxylate]
163 | CC(C)N1CCN([C@@H]2CCCC(F)(F)[C@H]2NC(=O)N2CCC(C)(c3cc(C4CC4)on3)CC2)CC1 [Example 22, 4-(5-cyclopropyl-1,2-oxazol-3-yl)-N-{(1S,6R)-2,2-difluoro-6-[4-(propan-2-yl)piperazin-1-yl]cyclohexyl}-4-methylpiperidine-1-carboxamide]
104 | CC(C)N1CCN([C@@H]2CCCC(F)(F)[C@H]2NC(=O)N2CCC(C)(c3noc(C4CC4)n3)CC2)CC1 [Example 23, 4-(5-cyclopropyl-1,2,4-oxadiazol-3-yl)-N-{(1S,6R)-2,2-difluoro-6-[4-(propan-2-yl)piperazin-1-yl]cyclohexyl}-4-methylpiperidine-1-carboxamide]
210 | CC(C)N1CCN([C@H]2CCCC(F)(F)[C@@H]2NC(=O)N2CCC(C)(c3noc(C4CC4)n3)CC2)CC1 [Example 24, 4-(5-cyclopropyl-1,2,4-oxadiazol-3-yl)-N-{(1R,6S)-2,2-difluoro-6-[4-(propan-2-yl)piperazin-1-yl]cyclohexyl}-4-methylpiperidine-1-carboxamide]
165 | CC(C)N1CCN([C@H]2CCCC(F)(F)[C@@H]2NC(=O)N2CCC(C)(c3cc(C4CC4)on3)CC2)CC1 [Example 25, 4-(5-cyclopropyl-1,2-oxazol-3-yl)-N-{(1R,6S)-2,2-difluoro-6-[4-(propan-2-yl)piperazin-1-yl]cyclohexyl}-4-methylpiperidine-1-carboxamide]
146 | CC(C)N1CCN([C@H]2CCCC(F)(F)[C@@H]2NC(=O)N2CCC(C)(c3nsc(C4CC4)n3)CC2)CC1 [Example 43, 4-(5-cyclopropyl-1,2,4-thiadiazol-3-yl)-N-{(1R,6S)-2,2-difluoro-6-[4-(propan-2-yl)piperazin-1-yl]cyclohexyl}-4-methylpiperidine-1-carboxamide]
148 | CC(C)N1CCN([C@H]2CCCC(F)(F)[C@@H]2NC(=O)N2CCC(C)(c3nnc(C4CC4)s3)CC2)CC1 [Example 44, 4-(5-cyclopropyl-1,3,4-thiadiazol-2-yl)-N-{(1R,6S)-2,2-difluoro-6-[4-(propan-2-yl)piperazin-1-yl]cyclohexyl}-4-methylpiperidine-1-carboxamide]
151 | Cc1ccc(C2(C)CCN(C(=O)N[C@@H]3[C@@H](N4CCN(C(C)C)CC4)CCCC3(F)F)CC2)cc1 [Example 49, N-{(1R,6S)-2,2-difluoro-6-[4-(propan-2-yl)piperazin-1-yl]cyclohexyl}-4-methyl-4-(4-methylphenyl)piperidine-1-carboxamide]
140 | Cc1ccc(C2(C)CCN(C(=O)N[C@@H]3[C@@H](N4CCN(C(C)C)CC4)CCCC3(F)F)CC2)c(F)c1 [Example 56, N-{(1R,6S)-2,2-difluoro-6-[4-(propan-2-yl)piperazin-1-yl]cyclohexyl}-4-(2-fluoro-4-methylphenyl)-4-methylpiperidine-1-carboxamide]
155 | CC(C)N1CCN([C@H]2CCCC(F)(F)[C@@H]2NC(=O)N2CCC(C)(c3nsc(OC4CC4)n3)CC2)CC1 [Example 57, 4-[5-(cyclopropyloxy)-1,2,4-thiadiazol-3-yl]-N-{(1R,6S)-2,2-difluoro-6-[4-(propan-2-yl)piperazin-1-yl]cyclohexyl}-4-methylpiperidine-1-carboxamide]
151 | Cc1ccc(C2(C)CCN(C(=O)N[C@@H]3[C@@H](N4CCN(C(C)C)CC4)CCCC3(F)F)CC2)c(C#N)c1 [Example 60, 4-(2-cyano-4-methylphenyl)-N-{(1R,6S)-2,2-difluoro-6-[4-(propan-2-yl)piperazin-1-yl]cyclohexyl}-4-methylpiperidine-1-carboxamide]

SMILES | agonist activity (%)
Cc1ccc(C2(C)CCN(C(=O)N[C@@H]3[C@@H](N4CC5CC(C4)N5C(C)C)CCCC3(F)F)CC2)cc1 [Example 61, N-{(1R,6S)-2,2-difluoro-6-[6-(propan-2-yl)-3,6-diazabicyclo[3.1.1]heptan-3-yl]cyclohexyl}-4-methyl-4-(4-methylphenyl)piperidine-1-carboxamide] | 169
